Assays:
Panc-1 cells [1] = assay: Protein expression using high content cell imaging system, and efficacy score; assay type: cell-based; conditions: for Efficacy score: cumulative over proteins of Table 7
Panc-1 cells [2] = assay: Microarray gene expression analysis; assay type: cell-based, human; conditions: Panc-1, microarray
Description: The goal of the microarray analysis was to evaluate putative gene expression signatures associated with the in vitro synergistic effect of the combination therapy of Gemcitabine with […]-00 in Panc-1 cells. The time points (3 hrs, 6 hrs, 12 hrs) were chosen to establish early molecular changes in the transcription profile for probable biomarkers and mechanism of action for the combination therapy. Approximately 20 million cells were lysed in Trizol Reagent (Invitrogen Corp, USA) and passed through a 21-gauge needle for 5-10 times before RNA extraction was performed. Total RNA extraction was performed using the RNeasy Mini kit (Qiagen, USA) according to the manufacturer's protocol. The final total RNA was eluted in nuclease-free water and the concentration/purity was determined by Nanodrop spectrophotometer (Thermo Fisher Scientific, Delaware, USA). cDNA generation and labeling: 20 μg of total RNA was reverse transcribed using amino allyl dUTP and oligo dT, the resulting cDNA was indirectly labeled with Cy3/Cy5 dyes (GE Healthcare, USA) using a fluorescent labeling kit (Promega Biosciences, USA). The concentration and dye incorporation of the labeled products were determined by Nanodrop spectrophotometer (Thermo Fisher Scientific, Delaware, USA). Equal amounts of labeled cDNA were denatured at 95° C. for 5 mins, cooled and microfuged at 13200 rpm for 5 mins before hybridization. Array fabrication and hybridization: 70-mer transcript oligonucleotides representing 36,480 human genes was purchased from Operon Biotechnologies (Germany) and spotted onto aminosilane coated glass slides (ArrayIt, USA) by contact printing using a Omnigrid (OG100) spotter (Genomic Solutions Inc, USA). Post printing, the slides were cross-linked with UV light at […], vacuumed, sealed and stored in the dark. The slides were pre-processed for background reduction using Pronto (Promega Life sciences, USA) pre-hyb kit as per the manufacturer's instructions. Hybridization was carried out in the GeneTAC Hybstation (Genomic Solutions Inc, USA) for 18 hrs. The hybridization protocol is as follows: 6 hrs at 42° C. (with agitation), 6 hrs at 35° C. (with agitation), and 6 hrs at 30° C. (with agitation). Post hybridization, the arrays were washed according to the manufacturer's protocol. The slides were dried by centrifugation at 1600 rpm for 5 mins. Scanning and image analysis: Post drying, the slides were scanned in a laser scanner (Genomic Solutions, USA) for Cy3 and Cy5 detection. The PMT settings were adjusted using the auto-exposure feature of the scanner. The TIFF files thus generated were exported to GeneTAC Integrator software (Genomic Solutions, USA) for image analysis. The resultant CSV file containing the annotated genome and the corresponding ratios were further used for data analysis.

Panc-1 cells [3] = assay: Propidium iodide-based fluorescence cytotoxicity assay; assay type: cell-based; conditions: single agent
Experimental: The combination of P276-00 and Gemcitabine was screened for its synergistic effect in Panc-1 cells using propidium iodide based fluorescence cytotoxicity assay.
Test System: The Panc-1 cell line was procured from ATCC (American Tissue type Culture Collection), USA. Catalog number: CRL-1469 and the frozen vial was stored in liquid nitrogen container. Propidium iodide dye was procured from Sigma-Aldrich, USA. Catalog number: P-4170-100 mg and it was stored at 2-8° C.
Method: Panc-1 cells were seeded at a density of 2000 cells/well, in a 200 μL in tissue culture grade 96 well plate and allowed to recover for 24 hrs in a humidified 5%±0.2 CO2 incubator at 37° C.±0.5° C. After 24 hrs, 1 μL of 200 X (200 times higher than required concentration is denoted as 200×) compound (dissolved in neat DMSO), as per Table 1 or 2 was added to the wells. The final DMSO concentration was 0.5% in wells. The plate was incubated for 24 hrs in humidified 5%±0.2 CO2 incubator at 37±0.5° C.
After 24 hrs Minimum Essential Medium (MEM) from the Gemcitabine treated wells was removed and washed two times with fresh MEM and followed by addition of 200 μL of fresh MEM per well. 1 μL of 200× (200 times higher than required concentration is denoted as 200×) compound (dissolved in neat DMSO) was then added as per the Table 1 and 2 designs. The final DMSO concentration was 0.5% in wells which also served as the vehicle control for the study. After 72 hrs the plate was removed from CO2 incubator and spent MEM aspirated from the wells and supplemented with fresh MEM. This was followed by addition of 25 μL of propidium iodide (50 μg/ml in medium) per well. The same plate was frozen at −80° C. for 24 hrs and then thawed and allowed to come to room temperature. The fluorescence at a wavelength of 530 nm excitation and 620 nm emission was read.
The percent cytotoxicity was calculated using the following formula

[4] = 6 hours post treatment, control 3
[5] = 36 hours post treatment, control 98

## CN1CC[C@@H](c2c(O)cc(O)c3c(=O)cc(-c4ccccc4Cl)oc23)[C@@H]1CO.Cl (relative stereo) [P276-00, (+)-trans-2-(2-Chloro-phenyl)-5,7-dihydroxy-8-(2-hydroxy-methyl-1-methyl-pyrrolidin-3-y1)-chromen-4-one hydrochloride]
Panc-1 cells [1]; 6 hours post treatment, control 1
  PTN protein expression: 2 fluorescence units
Panc-1 cells [1]; [4]
  GADD45-α protein expression: 10 fluorescence units
  ID1 protein expression: 1 fluorescence units
Panc-1 cells [1]; 6 hours post treatment, control 6
  P27 protein expression: 7 fluorescence units
Panc-1 cells [1]; 6 hours post treatment, control 7
  CDC25B protein expression: 2 fluorescence units
Panc-1 cells [1]; 6 hours post treatment, control 8
  CDKN2A protein expression: 76 fluorescence units
Panc-1 cells [1]; 6 hours post treatment, control 74
  CCND1 protein expression: 84 fluorescence units
Panc-1 cells [1]; 6 hours post treatment, control 80
  GAPDH protein expression: 96 fluorescence units
Panc-1 cells [1]; 6 hours post treatment, control 147
  CASP3 protein expression: 152 fluorescence units
Panc-1 cells [1]; 6 hours post treatment, control 501
  MMP-1 protein expression: 618 fluorescence units
Panc-1 cells [1]; 6 hours post treatment, control 627
  COX15 protein expression: 907 fluorescence units
Panc-1 cells [1]; 6 hours post treatment, control 635
  COX2 protein expression: 406 fluorescence units
Panc-1 cells [1]; 6 hours post treatment, control 819
  BAX protein expression: 700 fluorescence units
Panc-1 cells [1]; 6 hours post treatment, control 829
  VEGF protein expression: 618 fluorescence units
Panc-1 cells [1]; 6 hours post treatment, control 830
  BCL2 protein expression: 376 fluorescence units
Panc-1 cells [1]; 6 hours post treatment, control 1240
  pRB protein expression: 1540 fluorescence units
Panc-1 cells [1]; 6 hours
  Efficacy score: 4.7
Panc-1 cells [1]; 16 hours post treatment, control 13
  GADD45-α protein expression: 23 fluorescence units
Panc-1 cells [1]; 16 hours post treatment, control 54
  CDC25B protein expression: 15 fluorescence units
Panc-1 cells [1]; 16 hours post treatment, control 64
  CDKN2A protein expression: 9 fluorescence units
Panc-1 cells [1]; 16 hours post treatment, control 67
  P27 protein expression: 12 fluorescence units
Panc-1 cells [1]; 16 hours post treatment, control 76
  PTN protein expression: 12 fluorescence units
Panc-1 cells [1]; 16 hours post treatment, control 77
  ID1 protein expression: 18 fluorescence units
Panc-1 cells [1]; 16 hours post treatment, control 90
  CCND1 protein expression: 46 fluorescence units
Panc-1 cells [1]; 16 hours post treatment, control 100
  GAPDH protein expression: 100 fluorescence units
Panc-1 cells [1]; 16 hours post treatment, control 202
  CASP3 protein expression: 607 fluorescence units
Panc-1 cells [1]; 16 hours post treatment, control 579
  VEGF protein expression: 264 fluorescence units
Panc-1 cells [1]; 16 hours post treatment, control 644
  BCL2 protein expression: 81 fluorescence units
Panc-1 cells [1]; 16 hours post treatment, control 711
  BAX protein expression: 644 fluorescence units
Panc-1 cells [1]; 16 hours post treatment, control 718
  COX15 protein expression: 852 fluorescence units
Panc-1 cells [1]; 16 hours post treatment, control 929
  MMP-1 protein expression: 264 fluorescence units
Panc-1 cells [1]; 16 hours post treatment, control 1109
  COX2 protein expression: 375 fluorescence units
Panc-1 cells [1]; 16 hours post treatment, control 2583
  pRB protein expression: 1400 fluorescence units
Panc-1 cells [1]; 16 hours
  Efficacy score: 10.8
Panc-1 cells [1]; 36 hours post treatment, control 19
  GADD45-α protein expression: 31 fluorescence units
Panc-1 cells [1]; 36 hours post treatment, control 96
  P27 protein expression: 5 fluorescence units
Panc-1 cells [1]; [5]
  CCND1 protein expression: 25 fluorescence units
  CDC25B protein expression: 4 fluorescence units
  GAPDH protein expression: 2 fluorescence units
  ID1 protein expression: 6 fluorescence units
Panc-1 cells [1]; 36 hours post treatment, control 100
  PTN protein expression: 100 fluorescence units
Panc-1 cells [1]; 36 hours post treatment, control 265
  CASP3 protein expression: 670 fluorescence units
Panc-1 cells [1]; 36 hours post treatment, control 715
  BAX protein expression: 1120 fluorescence units
Panc-1 cells [1]; 36 hours post treatment, control 722
  COX15 protein expression: 1327 fluorescence units
Panc-1 cells [1]; 36 hours post treatment, control 1093
  VEGF protein expression: 355 fluorescence units
Panc-1 cells [1]; 36 hours post treatment, control 1316
  MMP-1 protein expression: 355 fluorescence units
Panc-1 cells [1]; 36 hours post treatment, control 1410
  BCL2 protein expression: 374 fluorescence units
Panc-1 cells [1]; 36 hours post treatment, control 1441
  CDKN2A protein expression: 707 fluorescence units
Panc-1 cells [1]; 36 hours post treatment, control 2840
  pRB protein expression: 1657 fluorescence units
Panc-1 cells [1]; 36 hours
  Efficacy score: 11.1
Panc-1 cells [2]
  CDK8 gene expression value (log value of intensities): 0.16
  DICER1 gene expression value (log value of intensities): 0.14
  DLG5 gene expression value (log value of intensities): 0.25
  DNAI1 gene expression value (log value of intensities): −0.20
  FA38A gene expression value (log value of intensities): −0.93
  FGF5 gene expression value (log value of intensities): 0.23
  HELLS gene expression value (log value of intensities): 0.62
  HIST1H2BO gene expression value (log value of intensities): −0.39
  ID1 gene expression value (log value of intensities): 0.18
  MKKS gene expression value (log value of intensities): −0.08
  PPIL4 gene expression value (log value of intensities): 0.30
  RRM2 gene expression value (log value of intensities): −0.14
  SLC19A2 gene expression value (log value of intensities): 0.97
  SNX7 gene expression value (log value of intensities): −0.12
  TMPRSS3 gene expression value (log value of intensities): 0.33
Panc-1 cells [3]; 60 nM
  % Cytotoxicity: 27%
Panc-1 cells [3]; 120 nM
  % Cytotoxicity: 33%
Panc-1 cells [3]; 240 nM
  % Cytotoxicity: 35%
Panc-1 cells [3]; 480 nM
  % Cytotoxicity: 45%
Panc-1 cells [3]; 960 nM
  % Cytotoxicity: 58%
